PubChem BioAssay AID248 (DTP/NCI, 2004)
Values joined by “and” are separate entries in the source; they are usually repeats but may differ in a detail not shown here. Equal entries are not always repeated. Toxic doses and inconclusive results are not listed. Cut-off read from the data, not from the text of the source: active = T/C of 150% or more; inactive = T/C below 125%.

Tested on: L1210 leukemia ip in BDF1 mice, survival T/C
Test: NCI In Vivo Anticancer Drug Screen. Data for tumor model L1210 Leukemia (intraperitoneal) in B6D2F1 (BDF1) mice
Details: endpoint: mean survival time, higher = longer survival
In short: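 Ratio derived from survival: compound-dosed mice over vehicle-dosed mice, all bearing a transplantable tumor.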

[1] = dose: 12.5 mg/kg/injection, schedule: Q04DX003 (ip), vehicle: saline
[2] = dose: 25.0 mg/kg/injection, schedule: Q04DX003 (ip), vehicle: saline
[3] = dose: 50.0 mg/kg/injection, schedule: Q04DX003 (ip), vehicle: saline
[4] = dose: 100.0 mg/kg/injection, schedule: Q01DX001 (ip), vehicle: carboxymethylcellulose (CMC)
[5] = dose: 200.0 mg/kg/injection, schedule: Q01DX001 (ip), vehicle: carboxymethylcellulose (CMC)
[6] = dose: 400.0 mg/kg/injection, schedule: Q01DX001 (ip), vehicle: carboxymethylcellulose (CMC)
[7] = dose: 100.0 mg/kg/injection, schedule: Q04DX002 (ip), vehicle: Klucel (hydroxypropylcellulose) (HPC)
[8] = dose: 200.0 mg/kg/injection, schedule: Q04DX002 (ip), vehicle: Klucel (hydroxypropylcellulose) (HPC)
[9] = dose: 400.0 mg/kg/injection, schedule: Q04DX002 (ip), vehicle: Klucel (hydroxypropylcellulose) (HPC)
[10] = dose: 100.0 mg/kg/injection, schedule: Q01DX009 (ip), vehicle: saline with Tween-80

Measured: T/C

COc1cc2c(cc1OC)C1=C(CC2)C2CCCN2CC1 (configuration not stated)
inactive: dose: 6.25 mg/kg/injection, schedule: Q04DX003 (ip), vehicle: saline 100 % of control | [1] 97 % of control | [2] 94 % of control and 105 % of control | [3] 102 % of control

CCCC(CCC)(C(N)=O)c1ccc(OC)cc1
inactive: [4] 87 % of control | [5] 98 % of control | [6] 93 % of control

O=C(O)c1ccc(Br)cc1F
inactive: [4] 89 % of control | dose: 100.0 mg/kg/injection, schedule: Q01DX009 (ip), vehicle: carboxymethylcellulose (CMC) 109 % of control and 92 % of control | [7] 97 % of control | dose: 100.0 mg/kg/injection, schedule: Q04DX002 (ip), vehicle: carboxymethylcellulose (CMC) 104 % of control and 107 % of control | dose: 100.0 mg/kg/injection, schedule: Q04DX003 (ip), vehicle: carboxymethylcellulose (CMC) 97 % of control | [5] 99 % of control | dose: 200.0 mg/kg/injection, schedule: Q01DX009 (ip), vehicle: carboxymethylcellulose (CMC) 116 % of control and 89 % of control | [8] 97 % of control | dose: 200.0 mg/kg/injection, schedule: Q04DX002 (ip), vehicle: carboxymethylcellulose (CMC) 102 % of control and 91 % of control | dose: 200.0 mg/kg/injection, schedule: Q04DX003 (ip), vehicle: carboxymethylcellulose (CMC) 99 % of control | [6] 89 % of control | dose: 400.0 mg/kg/injection, schedule: Q01DX009 (ip), vehicle: carboxymethylcellulose (CMC) 95 % of control and 92 % of control | [9] 97 % of control | dose: 400.0 mg/kg/injection, schedule: Q04DX002 (ip), vehicle: carboxymethylcellulose (CMC) 99 % of control and 100 % of control | dose: 400.0 mg/kg/injection, schedule: Q04DX003 (ip), vehicle: carboxymethylcellulose (CMC) 105 % of control

CCCOc1ccc([N+](=O)[O-])cc1N
inactive: [4] 96 % of control | [5] 100 % of control | [6] 94 % of control

N#CCC[P+](c1ccccc1)(c1ccccc1)c1ccccc1
inactive: dose: 5.0 mg/kg/injection, schedule: Q01DX001 (ip), vehicle: saline 102 % of control | dose: 10.0 mg/kg/injection, schedule: Q01DX001 (ip), vehicle: saline 102 % of control | dose: 20.0 mg/kg/injection, schedule: Q01DX001 (ip), vehicle: saline 102 % of control | dose: 40.0 mg/kg/injection, schedule: Q01DX001 (ip), vehicle: saline 102 % of control | dose: 80.0 mg/kg/injection, schedule: Q01DX001 (ip), vehicle: saline 100 % of control | dose: 100.0 mg/kg/injection, schedule: Q01DX001 (ip), vehicle: saline 109 % of control | dose: 200.0 mg/kg/injection, schedule: Q01DX001 (ip), vehicle: saline 108 % of control

O=C(CNC(c1ccccc1)(c1ccccc1)c1ccccc1)OC(c1ccccc1)c1ccccc1
inactive: [10] 86 % of control | dose: 100.0 mg/kg/injection, schedule: Q04DX003 (ip), vehicle: saline sonified 106 % of control | dose: 200.0 mg/kg/injection, schedule: Q01DX009 (ip), vehicle: saline with Tween-80 89 % of control | dose: 200.0 mg/kg/injection, schedule: Q04DX003 (ip), vehicle: saline sonified 92 % of control | dose: 400.0 mg/kg/injection, schedule: Q04DX003 (ip), vehicle: saline sonified 97 % of control

N#CCCNCCC#N
inactive: dose: 100.0 mg/kg/injection, schedule: Q01DX009 (ip), vehicle: saline 103 % of control | dose: 100.0 mg/kg/injection, schedule: Q04DX003 (ip), vehicle: saline 102 % of control | dose: 200.0 mg/kg/injection, schedule: Q01DX009 (ip), vehicle: saline 97 % of control | dose: 200.0 mg/kg/injection, schedule: Q04DX003 (ip), vehicle: saline 100 % of control | dose: 400.0 mg/kg/injection, schedule: Q01DX009 (ip), vehicle: saline 104 % of control | dose: 400.0 mg/kg/injection, schedule: Q04DX003 (ip), vehicle: saline 96 % of control

O=C(O)C(CSC(c1ccccc1)c1ccccc1)NC(=O)C(c1ccccc1)c1ccccc1 (configuration not stated)
inactive: dose: 100.0 mg/kg/injection, schedule: Q01DX009 (ip), vehicle: Klucel (hydroxypropylcellulose) (HPC) 112 % of control | dose: 100.0 mg/kg/injection, schedule: Q04DX003 (ip), vehicle: Klucel (hydroxypropylcellulose) (HPC) 97 % of control | dose: 200.0 mg/kg/injection, schedule: Q01DX009 (ip), vehicle: Klucel (hydroxypropylcellulose) (HPC) 101 % of control | dose: 200.0 mg/kg/injection, schedule: Q04DX003 (ip), vehicle: Klucel (hydroxypropylcellulose) (HPC) 99 % of control | dose: 400.0 mg/kg/injection, schedule: Q01DX009 (ip), vehicle: Klucel (hydroxypropylcellulose) (HPC) 98 % of control | dose: 400.0 mg/kg/injection, schedule: Q04DX003 (ip), vehicle: Klucel (hydroxypropylcellulose) (HPC) 94 % of control

CN(C)N=C(Cc1ccccc1)Cc1ccccc1
inactive: dose: 50.0 mg/kg/injection, schedule: Q01DX009 (ip), vehicle: saline with Tween-80 97 % of control | [10] 103 % of control | dose: 100.0 mg/kg/injection, schedule: Q04DX003 (ip), vehicle: saline with Tween-80 103 % of control | dose: 200.0 mg/kg/injection, schedule: Q04DX003 (ip), vehicle: saline with Tween-80 106 % of control

Cc1ccc2c3nc4ccccc4c-3csc2c1
inactive: dose: 6.25 mg/kg/injection, schedule: Q01DX009 (ip), vehicle: saline 103 % of control | dose: 12.5 mg/kg/injection, schedule: Q01DX009 (ip), vehicle: saline 108 % of control and 103 % of control | [1] 93 % of control and 92 % of control | dose: 25.0 mg/kg/injection, schedule: Q01DX009 (ip), vehicle: saline 98 % of control and 93 % of control | [2] 93 % of control and 90 % of control | dose: 35.0 mg/kg/injection, schedule: Q01DX009 (ip), vehicle: saline 101 % of control and 86 % of control | [3] 87 % of control | dose: 55.0 mg/kg/injection, schedule: Q01DX009 (ip), vehicle: saline 93 % of control and 92 % of control

CCN(CC)CCCNCC(Cc1ccccc1)c1ccccc1 (configuration not stated)
inactive: dose: 100.0 mg/kg/injection, schedule: Q04DX002 (ip), vehicle: saline 92 % of control | dose: 200.0 mg/kg/injection, schedule: Q04DX002 (ip), vehicle: saline 99 % of control

Cc1ccc(N=Nc2ccc(C)cc2NC(=O)Nc2cc([N+](=O)[O-])ccc2C)cc1
inactive: [7] 92 % of control | [8] 101 % of control | [9] 111 % of control

CC1(C)CC[N+]1(C)C
inactive: dose: 11.0 mg/kg/injection, schedule: Q04DX003 (ip), vehicle: saline 98 % of control and 104 % of control | dose: 12.0 mg/kg/injection, schedule: Q04DX003 (ip), vehicle: saline 96 % of control | dose: 16.0 mg/kg/injection, schedule: Q04DX003 (ip), vehicle: saline 94 % of control and 107 % of control | [2] 94 % of control and 104 % of control | dose: 40.0 mg/kg/injection, schedule: Q04DX003 (ip), vehicle: saline 102 % of control | [3] 110 % of control | dose: 60.0 mg/kg/injection, schedule: Q04DX003 (ip), vehicle: saline 92 % of control

Fc1c(F)c(F)c(Oc2c(F)c(F)c(F)c(F)c2Oc2c(F)c(F)c(F)c(F)c2F)c(F)c1F
inactive: dose: 10.0 mg/kg/injection, schedule: Q01DX009 (ip), vehicle: Klucel (hydroxypropylcellulose) (HPC) 96 % of control | dose: 25.0 mg/kg/injection, schedule: Q01DX009 (ip), vehicle: Klucel (hydroxypropylcellulose) (HPC) 96 % of control | dose: 37.5 mg/kg/injection, schedule: Q01DX009 (ip), vehicle: Klucel (hydroxypropylcellulose) (HPC) 98 % of control | dose: 150.0 mg/kg/injection, schedule: Q01DX009 (ip), vehicle: Klucel (hydroxypropylcellulose) (HPC) 97 % of control | dose: 300.0 mg/kg/injection, schedule: Q01DX009 (ip), vehicle: Klucel (hydroxypropylcellulose) (HPC) 99 % of control

O=C(CC(CC(=O)c1ccccc1)c1ccccn1)c1ccccc1
inactive: dose: 50.0 mg/kg/injection, schedule: Q01DX001 (ip), vehicle: other 105 % of control | dose: 100.0 mg/kg/injection, schedule: Q01DX001 (ip), vehicle: other 100 % of control | dose: 200.0 mg/kg/injection, schedule: Q01DX001 (ip), vehicle: other 96 % of control | dose: 400.0 mg/kg/injection, schedule: Q01DX001 (ip), vehicle: other 102 % of control
